# Measurements published in patent US9629834B2, “Medicinal composition for inhibiting formation and/or enlargement of cerebral aneurysm or shrinking same” (KYOTO UNIVERSITY, priority 2013, dated 2017).
# Legend:
# MCP-1 = assay: Suppression of expression of MCP-1 at cerebral artery bifurcation (immunostaining); type: in vivo, SD rat; details: vs group without drug, FIG. 4
# [1] = tested on: macrophages (F4/80-positive cells); assay: Infiltration of macrophages into cerebral aneurysm formation site (F4/80 immunostaining); type: in vivo, SD rat; details: Day 1 to Day 27, Day 28, vs vehicle group, FIG. 3B
# Experimental: A rat model of cerebral aneurysm was prepared according to the method disclosed on the literature by Hashimoto et al. (Surgical Neurology 1978, Vol. 10, p. 3-8). Namely, 50 mg/kg of pentobarbital was administrated intraperitoneally to a 7-week-old male SD rat, and the left common carotid artery and the left renal artery were ligated by using 10-0 nylon thread under anesthesia (this is referred to as the surgery for inducing cerebral aneurysm). From the day after surgery (Day 1), the rat was reared with being fed a high-salt diet. During a rearing period, the rat was given free access to water. Forced oral administration of 0.03 mg/5 mL or 0.1 mg/5 mL of the suspension of Compound 1 to the cerebral aneurysm model was conducted once a day at a dose of 5 mL/kg from 1 day after surgery (Day 1) to 27 days after surgery (Day 27). 28 Days after surgery (Day 28), the treatments on the right olfactory artery/anterior cerebral artery bifurcation containing cerebral aneurysm were conducted by using similar procedures to the steps 1) to 5) of Reference Example 2, and a section of the bifurcation was prepared. […] Under the observation with a confocal microscope, the number of macrophages was counted in an area of 100 μm square centered around the cerebrovascular bifurcation where cerebral aneurysm developed. The measurement was conducted on five rats and the mean value was calculated. […]
# [2] = tested on: Human carotid artery endothelial cells HCtAEC; assay: Permeability of endothelial cells (Transwell, FITC-dextran); type: cell-based; details: 0.1 nM, 1 nM, 10 nM, or 100 nM; 60 minutes pre-culture; fluorescence after 5, 60 and 210 minutes; FIG. 14
# Experimental: Human carotid artery endothelial cells […] (Cell Applications) were seeded in the upper compartment of Transwell (diameter: 6.5 mm, pore size: 0.4 μm, collagen-Coated: Corning) so that the cell density was 1×10^5 cells/well, and the cells were cultured overnight in MesoEndo Growth Medium (Cell Applications) under a 5% CO2 atmosphere at 37° C. The medium was replaced with Endothelial Cell Serum-Free Defined Medium (Cell Applications), and the cells were further cultured overnight under the CO2 atmosphere at 37° C. Then, Compound 1 was added to the upper compartment and the lower compartment of Transwell so that the final concentration was 0 nM, 0.1 nM, 1 nM, 10 nM, or 100 nM, and the cells were cultured continuously. The well to which Compound 1 was not added was defined as a control. After culturing for 60 minutes, 250 μg/mL of fluorescein isothiocyanate (FITC)-dextran (2,000 kDa: Sigma-Aldrich) was added to the upper compartment of Transwell, and the amount of FITC-dextran which permeated into the lower compartment was determined by measuring the fluorescence intensity of the medium in the lower compartment after 5 minutes, 60 minutes, and 210 minutes.
# [3] = tested on: lymphocytes in peripheral blood; assay: Lymphopenic action in cerebral aneurysm model; type: in vivo, SD rat; details: 0.03 mg/5 mL or 0.1 mg/5 mL suspension, 5 mL/kg, forced oral, once a day, Day 1 to Day 27; blood collected Day 28; FIG. 2
# Experimental: A rat model of cerebral aneurysm was prepared according to the method disclosed on the literature by Hashimoto et al. (Surgical Neurology 1978, Vol. 10, p. 3-8). Namely, 50 mg/kg of pentobarbital was administrated intraperitoneally to a 7-week-old male SD rat, and the left common carotid artery and the left renal artery were ligated by using 10-0 nylon thread under anesthesia (this is referred to as the surgery for inducing cerebral aneurysm). From the day after surgery (Day 1), the rat was reared with being fed a high-salt diet. During a rearing period, the rat was given free access to water. Forced oral administration of 0.03 mg/5 mL or 0.1 mg/5 mL of the suspension of Compound 1 to the cerebral aneurysm model was conducted once a day at a dose of 5 mL/kg from 1 day after surgery (Day 1) to 27 days after surgery (Day 27). It should be noted that forced oral administration of the 0.5% MC solution (0 mg/5 mL of the suspension of Compound 1) to the cerebral aneurysm model was conducted once a day at a dose of 5 mL/kg. The group of these rats was defined as a vehicle group. […] The number of lymphocytes in the collected blood was counted by using a blood test system (Advia 120, Siemens Healthcare Diagnostics) according to the manual of the system.
structure (smiles),measurement,setting,value
"C[C@H](Oc1ccc(-c2nc(-c3ccc4[nH]cnc4c3)no2)cc1C(F)(F)F)C(F)(F)F.Cl [Compound 1, 5-{5-[3-(trifluoromethyl)-4-{[(2S)-1,1,1-trifluoropropan-2-yl]oxy}phenyl]-1,2,4-oxadiazol-3-yl}-1H-benzimidazole hydrochloride]",expression of MCP-1 in cerebral aneurysm walls,MCP-1; 0.03 mg/kg oral once a day,suppressed as compared to the group without being administered a drug
same,expression of MCP-1 in cerebral aneurysm walls,MCP-1; 0.1 mg/kg oral once a day,suppressed as compared to the group without being administered a drug
same,number of macrophages at the cerebral aneurysm formation site,[1]; 0.03 mg/kg oral once a day,decreased as compared to the number of macrophages in the vehicle group
same,number of macrophages at the cerebral aneurysm formation site,[1]; 0.1 mg/kg oral once a day,decreased as compared to the number of macrophages in the vehicle group
same,amount of FITC-dextran which permeated into the lower compartment (permeability of endothelial cells),[2],decreased the amount of FITC-dextran which permeated into the lower compartment in a concentration-dependent manner
same,number of lymphocytes in peripheral blood,[3],decreased the number of lymphocytes in peripheral blood in a concentration-dependent manner
